ChEMBL document CHEMBL5321237 (Eur J Med Chem, 2023)

How the values were obtained:
[1] = biological target: Macrophage colony-stimulating factor 1 receptor (Homo sapiens, UniProt P07333); assay: Inhibition of CSF1R (unknown origin) using FRET-peptide as substrate incubated in presence of ATP by FRET based Z-LYTE assay
[2] = tested on: T1, Receptor-type tyrosine-protein kinase FLT3 (Homo sapiens), P36888 [D835V]; assay: Competitive binding affinity to human FLT3 D835V mutant at 500 nM incubated for 1 hr by qPCR analysis relative to control
T1 sequence (whole entry): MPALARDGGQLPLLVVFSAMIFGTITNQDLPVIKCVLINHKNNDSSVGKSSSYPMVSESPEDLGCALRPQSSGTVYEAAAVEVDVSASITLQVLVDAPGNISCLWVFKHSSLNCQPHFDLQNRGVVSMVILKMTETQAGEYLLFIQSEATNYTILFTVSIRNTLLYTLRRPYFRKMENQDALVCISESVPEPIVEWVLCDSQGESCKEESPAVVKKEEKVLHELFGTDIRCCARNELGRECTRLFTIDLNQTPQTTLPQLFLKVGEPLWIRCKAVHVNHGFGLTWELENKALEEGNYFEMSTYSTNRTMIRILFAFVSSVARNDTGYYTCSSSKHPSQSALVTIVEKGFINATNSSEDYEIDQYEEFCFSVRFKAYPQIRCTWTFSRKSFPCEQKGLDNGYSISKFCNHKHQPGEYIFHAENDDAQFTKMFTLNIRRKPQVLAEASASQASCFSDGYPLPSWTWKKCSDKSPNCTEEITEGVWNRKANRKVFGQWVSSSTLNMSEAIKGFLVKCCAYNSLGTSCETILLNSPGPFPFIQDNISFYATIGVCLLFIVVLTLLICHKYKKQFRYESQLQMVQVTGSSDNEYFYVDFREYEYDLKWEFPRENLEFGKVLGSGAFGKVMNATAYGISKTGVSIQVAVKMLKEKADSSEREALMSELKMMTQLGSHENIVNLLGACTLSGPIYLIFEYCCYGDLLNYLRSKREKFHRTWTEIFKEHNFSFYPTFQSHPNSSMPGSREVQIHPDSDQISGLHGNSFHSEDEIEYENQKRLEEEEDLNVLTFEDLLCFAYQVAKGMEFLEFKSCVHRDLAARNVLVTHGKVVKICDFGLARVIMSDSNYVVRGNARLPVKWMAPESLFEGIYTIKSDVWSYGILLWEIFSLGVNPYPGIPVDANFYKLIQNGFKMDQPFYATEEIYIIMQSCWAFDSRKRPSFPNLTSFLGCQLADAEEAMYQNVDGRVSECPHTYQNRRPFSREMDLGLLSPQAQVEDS

[3] = tested on: Tyrosine-protein kinase ABL1 (Homo sapiens), P00519 [H396P]; assay: Competitive binding affinity to human ABL1 H396P mutant at 500 nM incubated for 1 hr by qPCR analysis relative to control
[4] = biological target: T2, Macrophage colony-stimulating factor 1 receptor (Mus musculus, UniProt P09581); assay: Inhibition of CSF1-induced CSF1R signalling in mouse BMDM cells assessed as reduction in ERK1/2 phosphorylation preincubated for 30 mins followed by CSF1 addition and measured after 10 mins; format: cell-based
T2 sequence (P09581 whole entry): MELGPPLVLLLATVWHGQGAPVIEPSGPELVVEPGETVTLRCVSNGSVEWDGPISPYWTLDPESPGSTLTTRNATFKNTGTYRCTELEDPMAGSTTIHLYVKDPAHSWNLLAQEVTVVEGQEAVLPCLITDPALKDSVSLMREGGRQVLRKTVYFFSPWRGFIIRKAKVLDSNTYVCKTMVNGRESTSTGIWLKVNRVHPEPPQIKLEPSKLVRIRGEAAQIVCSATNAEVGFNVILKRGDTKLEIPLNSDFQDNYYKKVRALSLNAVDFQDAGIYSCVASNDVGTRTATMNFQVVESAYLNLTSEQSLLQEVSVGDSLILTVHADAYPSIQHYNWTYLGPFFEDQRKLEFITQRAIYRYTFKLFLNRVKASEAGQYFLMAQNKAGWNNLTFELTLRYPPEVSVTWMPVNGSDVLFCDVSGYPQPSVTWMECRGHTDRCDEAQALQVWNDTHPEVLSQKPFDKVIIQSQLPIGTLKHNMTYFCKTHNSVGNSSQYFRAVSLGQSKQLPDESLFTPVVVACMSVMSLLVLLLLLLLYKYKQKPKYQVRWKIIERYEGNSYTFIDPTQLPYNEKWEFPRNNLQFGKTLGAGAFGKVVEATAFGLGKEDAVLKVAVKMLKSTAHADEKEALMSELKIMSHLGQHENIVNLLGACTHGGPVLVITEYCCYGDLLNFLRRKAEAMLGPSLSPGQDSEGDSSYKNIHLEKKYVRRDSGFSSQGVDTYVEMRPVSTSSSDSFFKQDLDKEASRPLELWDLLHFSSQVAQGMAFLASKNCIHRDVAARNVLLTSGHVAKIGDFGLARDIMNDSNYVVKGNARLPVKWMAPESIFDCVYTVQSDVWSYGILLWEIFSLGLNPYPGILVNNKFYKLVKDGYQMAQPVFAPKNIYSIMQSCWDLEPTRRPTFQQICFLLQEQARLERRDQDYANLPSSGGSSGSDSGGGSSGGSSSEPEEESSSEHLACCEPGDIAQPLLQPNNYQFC

[5] = biological target: T3, Macrophage colony-stimulating factor 1 receptor (Mus musculus) (UniProt P09581); assay: Inhibition of CSF1-induced CSF1R signalling in mouse BMDM cells assessed as reduction in ERK1/2 phosphorylation by measuring fold change preincubated for 30 mins followed by CSF1 addition and measured after 10 mins relative to pexidartinib; format: cell-based; conditions: time 40.0 min
T3 sequence (whole entry): T2 sequence (P09581 whole entry)

[6] = Metabolic stability in human liver microsomes assessed as intrinsic clearance at 3 uM measured upto 50 mins by LC-MS analysis; format: ADME, Microsome

Chain of Macrophage colony-stimulating factor 1 receptor (Homo sapiens, UniProt P07333) (P07333 whole entry): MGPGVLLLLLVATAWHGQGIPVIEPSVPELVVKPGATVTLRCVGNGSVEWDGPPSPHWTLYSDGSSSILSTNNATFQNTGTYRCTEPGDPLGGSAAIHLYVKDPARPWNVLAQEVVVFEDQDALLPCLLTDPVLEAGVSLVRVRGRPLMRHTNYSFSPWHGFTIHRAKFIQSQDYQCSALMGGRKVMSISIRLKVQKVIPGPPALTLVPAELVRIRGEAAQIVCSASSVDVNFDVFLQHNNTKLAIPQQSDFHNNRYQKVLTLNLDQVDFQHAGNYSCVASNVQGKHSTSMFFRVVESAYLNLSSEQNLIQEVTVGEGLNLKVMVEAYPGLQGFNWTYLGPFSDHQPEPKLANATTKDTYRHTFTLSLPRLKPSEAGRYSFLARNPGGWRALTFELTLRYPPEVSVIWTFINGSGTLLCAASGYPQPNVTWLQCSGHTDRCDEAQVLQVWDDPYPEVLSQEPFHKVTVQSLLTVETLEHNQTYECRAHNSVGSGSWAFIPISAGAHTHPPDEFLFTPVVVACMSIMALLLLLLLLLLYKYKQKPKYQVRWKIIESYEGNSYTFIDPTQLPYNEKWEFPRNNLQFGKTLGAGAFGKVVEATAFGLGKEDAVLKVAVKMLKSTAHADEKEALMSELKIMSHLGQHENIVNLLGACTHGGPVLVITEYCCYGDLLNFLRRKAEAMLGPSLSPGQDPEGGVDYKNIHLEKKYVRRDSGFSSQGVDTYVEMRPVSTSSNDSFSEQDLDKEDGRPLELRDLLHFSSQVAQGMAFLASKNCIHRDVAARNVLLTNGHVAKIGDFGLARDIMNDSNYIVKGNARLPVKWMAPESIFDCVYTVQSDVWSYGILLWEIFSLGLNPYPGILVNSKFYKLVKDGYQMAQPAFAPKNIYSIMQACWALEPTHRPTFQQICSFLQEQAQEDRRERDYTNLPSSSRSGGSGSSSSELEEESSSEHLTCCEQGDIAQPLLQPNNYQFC

An IC50 [1] of 0.5 nM, an Activity [2] of 92% and an Activity [3] of 96% were found for `CN(CC1CCCC1)c1ncnc2[nH]c(-c3ccc(CO)cc3)nc12` in this work. For the same compound, the IC50 [4] was 40 nM, the fold change (FC) [5] was 0.4 and the CLint [6] was 36.4 µL/min/mg.
